The values below come from PMC3818835, “What Goes around Comes around-A Comparative Study of the Influence of Chemical Modifications on the Antimicrobial Properties of Small Cyclic Peptides” (Pharmaceuticals, 2013).

The subject of data set [1] is B. subtilis DSM 347. Particulars: 5 µM, PI influx; cited from earlier work. Here is the method:
Figure 4 Bacterial membrane permeabilisation determined with flow cytometry using propidium iodide (PI). PI influx after incubation with cWFW, fluorescent-labeled and K-substituted cyclic hexapeptides was tested into B. subtilis DSM 347 (A,C) and E. coli DH5α (B,D) at respective MICs. […] Preparations without peptide were used as negative co ...

The test system of data set [2] is eukaryotic cells. Further details: method as in PMID 15248771. As to conditions: cited from earlier work.
In data set [3] the test system is human erythrocytes. Format: cell-based. As to conditions: pH 7.4. Here is the method:
The lytic effect of selected peptides upon human erythrocytes was determined as described before. Briefly, cells were washed thoroughly in Tris buffer (10 mM Tris, 150 mM NaCl, pH 7.4). Suspensions with 2.5 × 10^8 cells/mL were incubated with peptides at a final concentration of 100 µM for 30 min at 37 °C. After centrifugation, 0.6% NH4OH was added to an aliquot of the supernatant and hemoglobin absorption (A) was measured at 540 nm (Jasco V-550). Whole cell suspensions exposed to NH4OH were used as positive control (A100%) and preparations without peptide served as negative control (A0%), respectively. Data were collected in three independent experiments.

The nature of data set [4]: Hydrophobicity: retention time tR by reversed phase HPLC. It counts as physicochemical. As to conditions: chromatographic, RP-HPLC ProntoSil 300-5-C18-H (250 × 4.6 mm, 5 µm); peptide 1 mg/mL in phase A (0.1% TFA in water); B 0.1% TFA in 80% acetonitrile; linear gradient 5%–95% B over 40 min at 22 °C; used as a measure of hydrophobicity. Here is the method:
The retention time tR of the cyclic hexapeptides was determined by HPLC on a Jasco LC-2000Plus using a ProntoSil 300-5-C18-H column (250 × 4.6 mm, 5 µm) (Bischoff Chromatography). Peptide concentration was 1 mg/mL in mobile phase A (0.1% TFA in deionized water), mobile phase B consisted of 0.1% TFA in 80% acetonitrile in deionized water. For chromatographic analyses a linear gradient of 5%–95% phase B over 40 min at 22 °C was applied.
To investigate the influence of fluorescent label modification and amino acid substitution on the hydrophobicity/amphipathicity of the cyclic hexapeptide derivatives, we determined the retention time tR by reversed phase HPLC (Figure 2). The method monitors the retention of compounds by the hydrophobic HPLC stationary phase. Differences in tR reflect differences in the effective hydrophobicity of the molecule which is related to the intrinsic hydrophobicity of the individual residues and their ability to form hydrophobic domains for interaction with the HPLC matrix. At the same time, hydrophilic residues will locate at the opposite side of the molecule. Reduction in the size or positioning of cationic residues next to the hydrophobic molecular surface area would reduce amphipathicity. tR-measurements have successfully been applied to characterize amphipathic helices, β-structured peptides and different sets of our small cyclic R-, W-rich peptides.

Data set [5] relates to E. coli DH5α. It counts as cell-based. Particulars: 18 h. Here is the method:
(§1) The minimal inhibitory concentration (MIC) of the cyclic hexapeptides was tested against Gram-negative E. coli DH5α and Gram-positive B. subtilis DSM 347 using a microdilution technique in 96 well microtiter plates as described previously. Briefly, cells from an overnight culture were inoculated 1:100 in LB medium, grown to mid log phase (OD600 0.4 ± 0.1) and adjusted to 5 × 10^5 cells/well. Final peptide concentrations ranged from 0.05 µM to 100 µM (2-fold dilutions) and were tested in triplicates in at least three independent experiments. The MIC was determined after 18 h of incubation at 37 °C, 180 rpm being the lowest peptide concentration at which no visible bacterial growth can be detected photometrically (A600, Safire Microplate Reader, Tecan, Männedorf, Germany).

Data set [6] relates to B. subtilis DSM 347. It counts as cell-based. As to conditions: DSM 347, 18 h. Here is the method: as §1

≈ marks a conversion by molar mass, not a printed value. Peptide text beside a SMILES is read from it.

Consider “KLALKLALKALKAALKLA-NH2 [KLA-1, helical model peptide …-NH2, positive control in Gram-positive cells]”, for which, in data set [1], the “Membrane permeabilising potential, Gram-positive cells (positive control)” value is recorded as “high membrane permeabilising potential”.
Turning to `N=C(N)NCCC[C@@H]1NC(=O)[C@H](CCCNC(=N)N)NC(=O)[C@H](Cc2c[nH]c3ccccc23)NC(=O)[C@H](Cc2ccccc2)NC(=O)[C@H](Cc2c[nH]c3ccccc23)NC(=O)[C@H](CCCNC(=N)N)NC1=O` [cWFW] (cyclo(FWRRRW); ring closure inferred), the “Toxicity towards eukaryotic cells” value in data set [2] is on record as “no toxicity towards eukaryotic cells could be detected”. Moreover, the “Hemolysis at 100 µM” value in data set [3] stood at 4%. For the same compound, the “Retention Time tR” value in data set [4] was found to be 17.67 min. Moreover, the “MIC E. coli DH5α” value in data set [5] was 3 µM (≈ 2.96 µg/mL). Further, the “MIC B. subtilis DSM 347” value in data set [6] was 3 µM (≈ 2.96 µg/mL).
